Measured values published in BigSolDB 2.1.

CN(C)CCn1[nH]nnc1=S
Conditions | solubility (mole fraction)
in DMF, 293.45 K | 0.000803
in DMF, 298.34 K | 0.000875
in DMF, 303.35 K | 0.00105
in DMF, 308.38 K | 0.00122
in DMF, 313.25 K | 0.00146
in DMF, 318.22 K | 0.00179
in DMF, 323.2 K | 0.00212
in DMF, 328.12 K | 0.00253
in DMF, 333.3 K | 0.00297
in DMF, 338.22 K | 0.00335
in DMF, 345.15 K | 0.00393
in ethanol, 293.25 K | 5.34e-05
in ethanol, 298.15 K | 6.16e-05
in ethanol, 302.95 K | 7.31e-05
in ethanol, 308.1 K | 8.48e-05
in ethanol, 312.94 K | 9.91e-05
in ethanol, 318.15 K | 0.000118
in ethanol, 322.55 K | 0.000133
in ethanol, 327.45 K | 0.000156
in ethanol, 332.55 K | 0.000181
in ethanol, 338.05 K | 0.000206
in ethanol, 342.2 K | 0.000227
in isopropanol, 293.15 K | 3.47e-05
in isopropanol, 298.28 K | 4.15e-05
in isopropanol, 303.35 K | 4.8e-05
in isopropanol, 308.14 K | 5.43e-05
in isopropanol, 313.25 K | 6.15e-05
in isopropanol, 318.2 K | 6.96e-05
in isopropanol, 323.25 K | 7.96e-05
in isopropanol, 328.16 K | 9.09e-05
in isopropanol, 333.35 K | 0.000106
in isopropanol, 338.32 K | 0.000123
in isopropanol, 343.45 K | 0.000144
in methanol, 293.05 K | 0.000156
in methanol, 298.17 K | 0.000186
in methanol, 303.15 K | 0.000219
in methanol, 308.2 K | 0.000254
in methanol, 313.05 K | 0.000291
in methanol, 318.24 K | 0.000348
in methanol, 323.25 K | 0.000414
in methanol, 328.23 K | 0.000485
in methanol, 333.15 K | 0.000571
in n-butanol, 293.15 K | 6.11e-05
in n-butanol, 298.21 K | 6.93e-05
in n-butanol, 303.35 K | 7.66e-05
in n-butanol, 308.14 K | 8.49e-05
in n-butanol, 313.05 K | 9.47e-05
in n-butanol, 318.28 K | 0.000103
in n-butanol, 323 K | 0.000112
in n-butanol, 328.14 K | 0.000126
in n-butanol, 333.05 K | 0.000141
in n-butanol, 338.12 K | 0.000158
in n-butanol, 343.1 K | 0.000179
in n-propanol, 293.17 K | 5.79e-05
in n-propanol, 298.14 K | 7.34e-05
in n-propanol, 303.25 K | 8.52e-05
in n-propanol, 308.12 K | 0.000107
in n-propanol, 313.15 K | 0.000127
in n-propanol, 318.23 K | 0.00014
in n-propanol, 323.2 K | 0.000161
in n-propanol, 328.34 K | 0.000176
in n-propanol, 332.95 K | 0.000189
in n-propanol, 338.18 K | 0.000216
in n-propanol, 343.16 K | 0.000241
in sec-butanol, 293.35 K | 3.16e-05
in sec-butanol, 298.37 K | 3.49e-05
in sec-butanol, 303.25 K | 4.12e-05
in sec-butanol, 308.24 K | 4.36e-05
in sec-butanol, 313.15 K | 4.84e-05
in sec-butanol, 318.12 K | 6.19e-05
in sec-butanol, 323 K | 7.52e-05
in sec-butanol, 327.33 K | 9.18e-05
in sec-butanol, 330.85 K | 0.00011
in sec-butanol, 335.57 K | 0.000133
in sec-butanol, 340.5 K | 0.000165
in water, 293.15 K | 0.00421
in water, 298.12 K | 0.00516
in water, 303.15 K | 0.00636
in water, 308.22 K | 0.008
in water, 313.35 K | 0.0101
in water, 318.28 K | 0.0127
in water, 323.35 K | 0.0161
in water, 328.24 K | 0.0199
in water, 333.35 K | 0.0246
in water, 338.21 K | 0.0303
in water, 343.3 K | 0.0371
